Experimental data reported in ChEMBL document CHEMBL1155045, “Apoptosis-inducing galactolipids from a cultured marine diatom, Phaeodactylum tricornutum” (2008).

Legend:
Type in all cases: functional
[1] = Effect on apoptosis-inducing gene deffective mouse D3 cells assessed as cell growth at 64 uM after 48 hrs by MTT assay; details: D3, 48 h, read-out: Activity
[2] = Induction of apoptosis in mouse W2 cells assessed as cell death at 64 uM after 48 hrs by MTT assay
[3] = Effect on apoptosis-inducing gene deffective mouse D3 cells assessed as cell growth at 52 uM after 48 hrs by MTT assay; details: D3, 48 h, read-out: Activity
[4] = Induction of apoptosis in mouse W2 cells assessed as cell death at 52 uM after 48 hrs by MTT assay

Row | SMILES | growth at 64 µM [1] [%] | Activity [2] [%] | growth at 52 µM [3] [%] | Activity [4] [%]
1 | CC/C=C\C/C=C\C/C=C\C/C=C\C/C=C\CC(=O)OC[C@H](CO[C@@H]1O[C@H](CO)[C@H](O)[C@H](O)C1O)OC(=O)CCCC/C=C\C/C=C\C/C=C\C/C=C\CC (single isomer, unassigned) | 14 | 18 | – | –
2 | CC/C=C\C/C=C\C/C=C\C/C=C\C/C=C\CCCC(=O)OC[C@H](CO[C@@H]1O[C@H](CO)[C@H](O)[C@H](O)C1O)OC(=O)CCCC/C=C\C/C=C\C/C=C\CCC (single isomer, unassigned) | – | – | 10 | 18
